Source: PMC6278366, “Synthesis and Evaluation of Anticancer Activities of Novel C-28 Guanidine-Functionalized Triterpene Acid Derivatives” (Molecules, 2018)
Structures can show the parent of a compound that is named as a salt.

Legend:
[1] = test system: K562 (chronic myeloid leukemia) cells; test: Cytotoxicity assay (7-AAD viability, flow cytometry), K562; assay type: cell-based, human; conditions: Homo sapiens, K562, mean ± SE, at least three experiments in duplicate; viable cells; read-out: IC50 K562
Method in brief: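 Suspension lines in RPMI 1640 with 10% FBS at 37 °C, 5% CO2, treated with compounds at 1, 5, 10, 15, 30 and 60 μM. Live/dead status by 7-AAD staining (15 min, room temperature, dark) read on flow cytometer, 488 nm excitation, 675/30 nm emission.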

normal human fibroblasts = test: Cytotoxicity assay (7-AAD viability, flow cytometry), normal fibroblasts; assay type: cell-based; conditions: Homo sapiens, Fibroblast, mean ± SE, at least three experiments in duplicate
Jurkat cells = test: Cell cycle analysis (propidium iodide staining, flow cytometry); assay type: cell-based, human; conditions: 48 h, at IC50 concentration (59 μM Dihydro BA; 4 μM 15, 15c, 18c; 8 μM 20c); for cells in G2/M phase: control 14.5%
Method: Cell cycle was analyzed using the method of propidium iodide staining. Briefly, cells were plated in 24-well round bottom plates at density 10 × 10^5 cells per well, centrifuged at 450× g for 5 min, and fixed with ice-cold 70% ethanol for 24 h at 0 °C. Cells were then washed with PBS and incubated with 250 μL of Guava Cell Cycle Reagent (Millipore, Burlington, MA, USA) for 30 min at room temperature in the dark. Samples were analyzed on NovoCyte^TM 2000 FlowCytometry System (ACEA, San Diego, CA, USA).
Figure 3 Cell cycle analysis in Jurkat cells. […] The cells were trypsinized, harvested and washed three times with ice-PBS for PI-stained DNA content detected by flow cytometry. The experiments were performed three times, and the results of the representative experiments are shown. The first cytogram represents an untreated cell sample (A); after incubation with dihydrobetulinic acid for 48 h (B); after incubation with compound 15 for 24 h (C) and for 48 h (D); after incubation with compound 15c for 24 h (E) and for 48 h (F); after incubation with compound 18c for 24 h (G) and for 48 h (H); after incubation with compound 20c for 24 h (I) and for 48 h (J). […]

SMILES | IC50 [1] [µM] | IC50 (normal human fibroblasts) [µM] | cells in G2/M phase (Jurkat cells) [%] | cells in S phase (Jurkat cells; control 38.3%) [%]
CC(=O)O[C@H]1CC[C@@]2(C)C(CC[C@]3(C)C2CCC2C4C(C(C)C)CC[C@]4(C(=O)OCC(N)(CO)CO)CC[C@]23C)C1(C)C (stereo partly drawn) [Compound 15, 3β-[2-Amino-3-hydroxy-2-(hydroxymethyl)propyl]-3-O-acetyl-lupane-28-oate] | 2.1 ± 0.13 | 31 ± 0.29 | 7.0 | 72.7
CC(=O)O[C@H]1CC[C@@]2(C)C(CC[C@]3(C)C2CCC2C4C(C(C)C)CC[C@]4(C(=O)OCC(CO)(CO)NC(=N)N)CC[C@]23C)C1(C)C (stereo partly drawn) [Compound 15c, 3β-[2-Guanidine-3-hydroxy-2-(hydroxymethyl)propyl]-3-O-acetyl-lupane-28-oate hydrochloride] | 2.3 ± 0.34 | 27 ± 0.14 | 1.5 | 
